Several values for one entry are separate records, joined by “and”; a condition that tells them apart may be missing. Equal values may be shown once. Entries after “also recorded” stand apart in the source; their conditions may differ. Read-outs that look alike come from different tables or passages of the source. *1 amine or outer side, *2 acyl side, *3 side chain or, on linkers, in order; H or OH if unused. Where a SMILES comes first, the peptide text is derived from it. Bridges are numbered along the chain shown (N, C = ends). Roman numbers before positions name the chains, in order. Where no end group is shown, it is not given here. [ ]: non-standard residue; d: D form. The star is where a group is joined. Actinocin(9to1) = Cc1c2oc3c(C)ccc(C(=O)[*:1])c3nc-2c(C(=O)[*:2])c(N)c1=O; NMeV = CN[C@H](C(=O)O)C(C)C; Cbz = O=C(OCc1ccccc1)*; Sar = CNCC(=O)O
What was measured:
[1] = system: Arc protein in DIV14 forebrain neurons; test: Western blot of Arc protein in cultured forebrain neurons; type: cell-based, mouse; conditions: for level of Arc protein, low dose cycloheximide: 10 min; for level of Arc protein after BDNF: BDNF 10 ng/ml
Protocol: For biochemistry experiments, 0.4×10^6 neurons were added to each well of a 6-well plate (Coming) coated with poly-L-lysine. Growth medium consisted of NeuroBasal (Invitrogen) supplemented with 1% fetal bovine serum (Hyclone), 2% B27, 1% Glutamax (Invitrogen), 100 U/mL penicillin, and 100 U/mL streptomycin (Invitrogen). Neurons were fed twice per week with glia conditioned growth medium.
Transfected HEK293T cells or cultured neurons were treated with various drugs and then harvested in IP buffer supplemented with 1% Triton X-100 buffer and Complete™ EDTA-Free protease inhibitors. Soluble fractions were diluted with 4× SDS sample buffer.
The membrane was blocked with TBST (50 mM Tris, pH 7.5, with 150 mM NaCl, and 0.1% Tween-20) containing 5% non-fat milk for one hour at room temperature, followed by incubation with primary antibody in TBST buffer overnight at 4° C. After three washes with TBST buffer, membranes were incubated with HRP-conjugated anti-rabbit, or anti-mouse antibody in TBST for another hour. After three washes with TBST buffer, the membrane was treated with SuperSignal ECL substrate (Pierce) according to the manufacturer's protocol.
To reduce the background signal in the co-IP assay, HRP-conjugated HA or HPR conjugated myc antibody (Santa Cruz) was used when overexpressed proteins were tagged with HA or myc. […] Image J software (NIH) was used for quantification.

[2] = system: hippocampal Schaffer collateral-CA1 synapses; test: Field recording of fEPSP (mGluR-LTD) in acute hippocampal slices; type: cell-based, mouse; conditions: for DHPG-LTD in the presence of high dose cycloheximide: cycloheximide 60 μM, t=105 min
Protocol: For recording, slices were placed in a submersion recording chamber and perfused with 30° C. ACSF at a rate of 2 ml/min.
fEPSPs were recorded with extracellular recording electrodes (1.0 MΩ) filled with ACSF and placed in the stratum radiatum of area CA1. Synaptic responses were evoked by a 200-μsec current pulse to Schaffer collateral axons with a concentric bipolar tungsten stimulating electrode. Stable baseline responses were collected every 30 sec by using a stimulation intensity (10-30 μA) yielding 50-60% of the maximal fEPSP slope response.
mGluR-LTD was induced by a mGluR1/5 agonist, (R,S)-3,5-DHPG (Tocris), or by electrical stimulations. […] NMDAR dependent-LTD was induced by using 900 single pulses delivered at 1 Hz.

[3] = system: global protein synthesis in cultured neurons; test: Metabolic labeling, incorporation of 35S methionine and cysteine into TCA precipitant; type: cell-based; conditions: 100 nM cycloheximide
Protocol: To measure the incorporation of ^35S methionine and cysteine into new peptide, 30 μl protein labeling mix (Perkin Elmer) was added into 1.5 ml of regular culture medium (final 220 μCi/ml) for the time indicated in the figures. After washout once with ice-cold PBS, cells were lysed with 700 μl of RIPA buffer. After quantification of total amount of protein, equal amount of lysate (˜200 μl) was precipitated with 10% TCA.

[4] = system: Arc protein in DIV14 hippocampal neurons; test: Arc immunocytochemistry in cultured hippocampal neurons; type: cell-based, mouse; conditions: emetine 10 ng/ml, 10 min
Protocol: Immunocytochemistry of cultured neurons was performed as described (Shepherd et al., Neuron, 52, 475-484 (2006)). Briefly, DIV14 primary hippocampal neurons were fixed in fixation solution (4% paraformaldehyde, 4% sucrose containing 1× PBS) for 20 min at 4° C. and were permeabilized with 0.2% Triton X-100 in PBS for 10 min 4° C. Cells were then blocked for 1 hr at room temperature in 10% normal goat serum (NGS). Primary antibodies were diluted (1:250 of phospho-eEF2 antibody, 1:500 of PSD95, 1:300 for Arc) in 10% NGS and incubated with neurons for overnight at 4° C. Alexa 488, or Alexa 555-conjugated secondary antibodies (1:500; Molecular Probes) were diluted in 10% NGS and incubated at room temperature for 1 hr. Coverslips were mounted with PermaFluor containing DAPI (Invitrogen). All images were taken with same exposure and setting using Zeiss 510 Meta confocal microscope. Quantification of Arc levels was carried out using Image J software. For the measurement of dendritic Arc levels, average pixel intensity was measured in the primary dendrites 20 μm away from the soma.

[5] = system: surface AMPA receptor (GluR2/3, GluR1) in cultured neurons; test: Surface biotinylation assay of AMPA receptor subunits; type: cell-based, mouse
Protocol: For surface biotinylation, drug-treated cortical neurons were cooled on ice, washed twice with ice-cold PBS++ (1× PBS, 1 mM CaCl2, 0.5 mM MgCl2) and then incubated with PBS++ containing 1 mg/ml Sulfo-NHS-SSBiotin (Pierce) for 30 min at 4° C. Unreacted biotin was quenched by washing cells three times with PBS++ containing 100 mM Glycine (pH 7.4) (briefly once and for 5 min twice). Cultures were harvested in RIPA buffer and sonicated. Homogenates were centrifuged at […] for 20 min at 4° C. Fifteen % of supernatant was saved as the total protein. […] Precipitates were washed with RIPA buffer three times (5 min each time). All procedures were done at 4° C.

eEF2 kinase = molecular target: T1, eEF2 kinase (Homo sapiens, UniProt O00418); test: Peptide substrate phosphorylation by eEF2 kinase; type: biochemical
T1 construct: made in house; host or cells: E. coli
Description: While alpha-kinase phosphorylation sites are typically found within alpha-helicies of peptide substrates, it was unknown for eEF2K if alpha-kinases recognized target substrates based on a specific primary peptide sequence around the phosphorylation site of eEF2K, or whether the alpha-helical secondary structure is responsible for the phosphorylation by alpha-kinases. To clarify this an arrayed peptide library screen was used (Turk, Yale Med. Sch. Dept. Pharmacol.) that thoroughly evaluated for specific kinase preference all 20 amino acids at each of nine positions neighboring the phosphorylation site.
Every peptide comprising this library contained a central fixed phosphorylation site where equimolar quantities of threonine and serine were introduced; each peptide also contained a carboxy-terminal biotin label. […]
Reactions in this screen were run for a given incubation time and then spotted simultaneously on a streptavidin membrane through use of a high throughput capillary-based liquid transfer device. Submersion of the membrane in a specified quenching solution stripped away unincorporated ATP and then radiolabeled-ATP incorporation was measured using a phosphoimager. […]

eEF2K = eEF2K (Homo sapiens, UniProt O00418); test: eEF2K activity in vitro; type: biochemical
[6] = system: Arc mRNA in cultured neurons; test: Real-time RT-PCR of Arc mRNA; type: cell-based; conditions: BDNF 10 ng/ml at 40 min; forskolin 50 μM at 20 min; DHPG at 20 and 40 min after stimulation
Protocol: RNA samples from neuronal cultures were prepared using the PARIS kit (Ambion) according to the manufacturer's protocol. Following RNA extraction, samples were treated with DNase to remove contaminating DNA prior to cDNA synthesis. Total RNA was reverse transcribed using the SuperScript II First Strand Synthesis System for RT-PCR (Invitrogen) according to the manufacturer's protocol. A negative control without reverse transcriptase was included.
Primer specificity was verified by melt curve analysis. PCR amplification of cDNA was performed using the BioRad iCycler Real-Time Detection System (BioRad Laboratories). cDNA (1 μl) was added to 24 μl of 1× reaction master mix (3 mM MgCl2, KCl, Tris-HCl, iTaq DNA polymerase, 25 units/ml SYBR Green 1, 0.2 mM each dNTPs, 10 nM fluorescein and 500 nM each gene specific primers). […]
GAPDH was used to normalize data. The threshold for detection of PCR product above background was set at 10× the standard deviation of the mean background fluorescence for all reactions. Background fluorescence was determined from cycles 1-5 prior to the exponential amplification of product and subtracted from the raw fluorescence of each reaction/cycle. […] Threshold cycle (CT; number of cycles to reach threshold of detection) was determined for each reaction.
Relative gene expression was determined using the 2^−ΔΔCT method (Livak, et al., Methods 25, 402-408 (2001)). […]

Q: `Cc1c2oc3c(C)ccc(C(=O)N[C@@H]4C(=O)N[C@H](C(C)C)C(=O)N5CCC[C@H]5C(=O)N(C)CC(=O)N(C)[C@@H](C(C)C)C(=O)O[C@@H]4C)c3nc-2c(C(=O)N[C@@H]2C(=O)N[C@H](C(C)C)C(=O)N3CCC[C@H]3C(=O)N(C)CC(=O)N(C)[C@@H](C(C)C)C(=O)O[C@@H]2C)c(N)c1=O` [Actinomycin D] (I: T[dV]P[Sar][NMeV] / II: T[dV]P[Sar][NMeV]; ester I:1-I:C, II:1-II:C; linker I:N-II:N via Actinocin(9to1)) was tested. Which “effect on induction of Arc protein by DHPG (5 min)” value [1] did it give?
A: The value was “did not alter; also recorded: did not block”.

Q: And the “basal levels of Arc with transcription inhibitor” value ([1]; ActD 10 μM, 1 hr)?
A: The value was “decreased the basal levels of Arc”.

Q: Which results are given for `C[C@@H]1C[C@@H]([C@H](O)CC2CC(=O)NC(=O)C2)C(=O)[C@@H](C)C1` [cycloheximide]?
A: fEPSP slope, low dose cycloheximide + DHPG [2]: 75.7±7.4 % of baseline and 69.0±2.6 % of baseline; DHPG-LTD in the presence of high dose cycloheximide ([2]; Fmr1 KO slices): 72.3±4.8 % of baseline; DHPG-LTD in the presence of high dose cycloheximide ([2]; WT (FVB) slices): 95.5±2.9 % of baseline; baseline synaptic transmission, low dose cycloheximide without mGluR stimulation ([2]; WT slices): 101.2±2.0%; baseline synaptic transmission, low dose cycloheximide without mGluR stimulation ([2]; eEF2K KO slices): 100.4±4.6%; effect on induction of Arc protein by DHPG (5 min) [1]: blocked; induction of Arc, high dose cycloheximide ([1]; >1 uM, WT and eEF2K KO neurons): did not induce Arc; level of Arc protein, low dose cycloheximide ([1]; WT neurons, low dose (50-100 nM)): increased Arc protein; level of Arc protein, low dose cycloheximide ([1]; WT neurons, low dose (50-100 nM), listed as CHX): increased the level of Arc protein; level of Arc protein, low dose cycloheximide ([1]; eEF2K KO neurons, 50 nM and 100 nM): increased the level of Arc protein; total incorporation of 35S labeled methionine and cysteine into TCA precipitant [3]: ~60%

Q: Which “effect on rapid DHPG-induced increase of Arc (immunocytochemistry)” value [4] does the source give for `CC[C@H]1CN2CCc3cc(OC)c(OC)cc3[C@@H]2C[C@@H]1C[C@H]1NCCc2cc(OC)c(OC)cc21` [emetine] here?
A: The value was “blocked”.

Q: `NC1=N[C@H](O)[C@H]2[C@H]3O[C@]4(O)O[C@@H]([C@@H](O)[C@@]2(N1)[C@@H]4O)[C@]3(O)CO` [TTX, tetrodotoxin] was tested. Which “surface expression of GluR1” value [5] did it give?
A: Its value is “increased the surface expression of GluR1”.

Q: For Ac-RKKYKFNEDTERRRFL [eEF2p], which “efficiency as substrate compared with the MH-U peptide” value (eEF2 kinase) is on record?
A: Its value is “two orders of magnitude more efficient”.

Q: For `CCCCCCCCCCCCC/C=C/[C@@H](O)[C@@H](N)COP(=O)(O)O` [Sphingosine-1-phosphate, sphingosine-1-phosphate], which “inhibition of eEF2K activity in vitro” value (eEF2K) is on record?
A: Its value is “inhibit eEF2K activity”.

Q: And the “inhibition of eEF2K activity in vitro” value (eEF2K; listed as sphingosine-1-phosphate)?
A: Its value is “inhibitor of eEF2 kinase”.

Q: For `CC(C)C[C@@H](C=O)NC(=O)[C@H](CC(C)C)NC(=O)[C@H](CC(C)C)NC(=O)OCc1ccccc1` [MG132] (Cbz-Leu-Leu-Leu-aldehyde), which “level of Arc protein with proteasome inhibitor” value ([1]; MG132 10 μM, 1 hr) is on record?
A: The value was “increased the basal level of Arc protein; also recorded: increased the levels of Arc”.

B1: BDNF: BDNF, applied at 10 ng/ml to neurons (protein, UniProt P23560 19-247, looked up)
Neurotrophic factor BDNF …: APMKEANIRGQGGLAYPGVRTHGTLESVNGPKAGSRGLTSLADTFEHVIEELLDEDQKVRPNEENNKDADLYTSRVMLSSQVPLEPPLLFLLEEYKNYLDAANMSMRVRRHSDPARRGELSVCDSISEWVTAADKKTAVDMSGGTVTVLEKVPVSKGQLKQYFYETKCNPMGYTKEGCRGIDKRHWNSQCRTTQSYVRALTMDSKKRIGWRFIRIDTSCVCTLTIKRGR
Q: Which “level of Arc mRNA” value [6] does the source give for B1 here?
A: The value was “induced the level of Arc mRNA”.

Q: What about the “level of Arc protein after BDNF” value ([1]; 40 min after treatment) of the same molecule?
A: Its value is “increased Arc protein expression; also recorded: increased the level of Arc protein”.

Q: And the “level of Arc protein after BDNF” value ([1]; after 5 min)?
A: The value was “no change”.
